Values of other authors as cited in patent US20230226058A1, “METHODS AND COMPOSITIONS FOR TREATING ACUTE KIDNEY INJURY” (CalciMedica, Inc., priority 2020, published 2023).

System: AKI rats

Compound: Cc1nnsc1C(=O)Nc1ccc(-n2nc(C(F)(F)F)cc2C(F)(F)F)cc1 [YM58483/BPT2]
- infiltration of total CD4+ T-cells, B-cells, and dendritic cells following I/R (AKI rats): attenuated
- Total IL17 expressing cells (treated rats relative to vehicle treated rats): reduced
